Source: ChEMBL document CHEMBL1155108, “SAR, pharmacokinetics, safety, and efficacy of glucokinase activating 2-(4-sulfonylphenyl)-N-thiazol-2-ylacetamides: discovery of PSN-GK1” (J Med Chem, 2008)
Values after ≈ are worked out from the molar mass of the structure shown. Active and inactive are the calls of the source. The calls are words filed in the database; no cut-off is given here.

Tests used:
Hexokinase-4 = biological target: T1, Hexokinase-4 (Homo sapiens, UniProt P35557); assay: Activation of GST fused human liver glucokinase assessed as generation of NADPH by G6PDH coupled assay
T1 sequence (P35557 whole entry): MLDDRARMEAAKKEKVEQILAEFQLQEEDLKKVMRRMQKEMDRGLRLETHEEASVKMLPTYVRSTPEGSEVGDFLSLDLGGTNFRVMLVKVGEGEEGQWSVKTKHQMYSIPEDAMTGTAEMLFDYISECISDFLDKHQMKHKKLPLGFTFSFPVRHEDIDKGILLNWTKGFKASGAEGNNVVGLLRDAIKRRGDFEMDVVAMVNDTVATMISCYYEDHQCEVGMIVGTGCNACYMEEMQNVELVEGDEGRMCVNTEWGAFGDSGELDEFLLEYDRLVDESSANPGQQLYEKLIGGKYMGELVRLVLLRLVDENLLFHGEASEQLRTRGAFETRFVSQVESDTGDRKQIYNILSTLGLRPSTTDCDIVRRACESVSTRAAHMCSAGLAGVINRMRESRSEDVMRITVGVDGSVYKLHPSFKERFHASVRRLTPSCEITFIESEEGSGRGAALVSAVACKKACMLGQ

[1] = Aqueous solubility at pH 6.5 buffer; type: physicochemical
[2] = Plasma concentration in C57B1/6 mouse at 5 mg/kg, po after 0.5 hrs; type: ADME, organism-based; parameters: dose 5 mg/kg, route oral
[3] = Metabolic stability in mouse liver microsomes; type: ADME, Microsome
Rattus norvegicus [4] = assay: Acute toxicity in rat at >=100 mg/kg, po; type: organism-based; settings: in vivo
[5] = Plasma concentration in C57B1/6 mouse at 10 mg/kg, po after 0.5 hrs; type: ADME, organism-based; parameters: dose 10 mg/kg, route oral
Rattus norvegicus [6] = assay: Toxicity in Sprague-Dawley rat at 250 mg/kg, po; type: organism-based; parameters: dose 250 mg/kg, route oral; settings: in vivo
[7] = Clearance in Sprague-Dawley rat at 1 mg/5 mL/kg, iv in 40% DMSO; type: ADME, organism-based; settings: in vivo, 1 mg/kg
Rattus norvegicus [8] = assay: Reduction in blood glucose level in fasted Sprague-Dawley rat at 10 mg/kg, po for 360 mins; type: functional, organism-based; parameters: dose 10 mg/kg
[9] = Half life in Sprague-Dawley rat at 1 mg/5 mL/kg, iv in 40% DMSO; type: ADME, organism-based; settings: in vivo, 1 mg/kg
[10] = AUC (0 to infinity) in Sprague-Dawley rat at 5 mg/10 mL/kg, po in 10% aqueous gelucire 44/14; type: ADME, organism-based; parameters: dose 10 mL/kg, time infinity, route oral; settings: plasma, 5 mg/kg
[11] = Volume of distribution at steady state in Sprague-Dawley rat at 1 mg/5 mL/kg, iv in 40% DMSO; type: ADME, organism-based; settings: in vivo, 1 mg/kg, read-out: Vdss
[12] = Cmax in Sprague-Dawley rat at 5 mg/10 mL/kg, po in 10% aqueous gelucire 44/14; type: ADME, organism-based; settings: in vivo, 5 mg/kg
[13] = Oral bioavailability in Sprague-Dawley rat at 5 mg/10 mL/kg in 10% aqueous gelucire 44/14; type: ADME, organism-based; settings: in vivo, 5 mg/kg
[14] = Cmax in Sprague-Dawley rat at 250 mg/kg, po; type: ADME, organism-based; parameters: dose 250 mg/kg, route oral; settings: in vivo
[15] = Tmax in Sprague-Dawley rat at 5 mg/10 mL/kg, po in 10% aqueous gelucire 44/14; type: ADME, organism-based; settings: in vivo, 5 mg/kg
[16] = AUC (0 to 24 hrs) in Sprague-Dawley rat at 250 mg/kg, po; type: ADME, organism-based; parameters: time < 24 hr, dose 250 mg/kg, route oral; settings: plasma
[17] = Half life in Sprague-Dawley rat at 5 mg/10 mL/kg, po in 10% aqueous gelucire 44/14; type: ADME, organism-based; settings: in vivo, 5 mg/kg
[18] = AUC (0 to infinity) in Sprague-Dawley rat at 1 mg/5 mL/kg, iv in 40% DMSO; type: ADME, organism-based; parameters: dose 5 mL/kg, time infinity, route intravenous; settings: plasma, 1 mg/kg

O=C(Nc1cnccn1)/C(=C/c1cccs1)c1ccccc1
EC50 (Hexokinase-4): 26 µM

CS(=O)(=O)c1ccc(C(=Cc2cccs2)C(=O)Nc2nccs2)cc1
EC50 (Hexokinase-4): 0.56 µM

O=C(Nc1nccs1)/C(=C/c1cccs1)c1ccccc1
EC50 (Hexokinase-4): 10.8 µM

O=C(Nc1ncc(F)s1)[C@H](CC1CCOCC1)c1ccc(S(=O)(=O)C2CCC2)cc1
solubility [1]: 0.06 mg/mL (≈ 133 µM)
concentration at 0.5 h [2]: 1.18 µg/mL
half-life [3]: 0.45 h
EC50 (Hexokinase-4): 0.14 µM

CS(=O)(=O)c1ccc([C@@H](CC2CCOCC2)C(=O)Nc2nccs2)cc1
solubility [1]: 0.41 mg/mL (≈ 1040 µM)
half-life [3]: > 3.33 h
Activity (Rattus norvegicus [4]): Toxic
concentration at 0.5 h [5]: 5.15 µg/mL
EC50 (Hexokinase-4): 3.47 µM

CS(=O)(=O)c1ccc(C(CC2CCOCC2)C(=O)Nc2nccs2)cc1 (stereo not drawn)
solubility [1]: 0.097 mg/mL (≈ 246 µM)
half-life [3]: > 3.33 h
EC50 (Hexokinase-4): 8.93 µM

O=C(Nc1ncc(F)s1)[C@H](CC1CCOCC1)c1ccc(S(=O)(=O)C2CCCC2)cc1
solubility [1]: 0.024 mg/mL (≈ 51.4 µM)
half-life [3]: 0.267 h
concentration at 0.5 h [5]: 0.168 µg/mL
EC50 (Hexokinase-4): 0.07 µM

CS(=O)(=O)c1ccc([C@@H](CC2CCOCC2)C(=O)Nc2ncc(F)s2)cc1
solubility [1]: 0.298 mg/mL (≈ 722 µM)
half-life [3]: 2.08 h
concentration at 0.5 h [5]: 8.28 µg/mL
EC50 (Hexokinase-4): 1.43 µM

CS(=O)(=O)c1ccc([C@H](CC2CCOCC2)C(=O)Nc2nccs2)cc1
EC50 (Hexokinase-4): > 10 µM

Cc1cnc(NC(=O)[C@H](CC2CCOCC2)c2ccc(S(=O)(=O)C3CC3)cc2)s1
solubility [1]: 0.04 mg/mL (≈ 92 µM)
half-life [3]: 0.883 h
concentration at 0.5 h [5]: 1.64 µg/mL
EC50 (Hexokinase-4): 0.58 µM

CS(=O)(=O)c1ccc(/C(=C\C2CCOCC2)C(=O)Nc2nccs2)cc1
solubility [1]: 0.013 mg/mL (≈ 33.1 µM)
half-life [3]: > 3.33 h
concentration at 0.5 h [5]: 3.68 µg/mL
EC50 (Hexokinase-4): 2.3 µM

O=C(Nc1ncc(F)s1)[C@H](CC1CCOCC1)c1ccc(S(=O)(=O)C2CC2)cc1
Activity (Rattus norvegicus [6]): Non-toxic
clearance [7]: 0.6 L/h/kg
Activity (Rattus norvegicus [8]): Active
half-life [9]: 3.2 h
solubility [1]: 0.058 mg/mL (≈ 132 µM)
AUC(0-inf) [10]: 10.7 µg·h/mL
Vd [11]: 2.1 L/kg
Cmax [12]: 1.13 µg/mL
bioavailability [13]: 129%
half-life [3]: 1.5 h
Cmax [14]: 49.2 µg/mL
Tmax [15]: 1 h
AUC(0-t) at 24 h [16]: 898 µg·h/mL
concentration at 0.5 h [5]: 5.01 µg/mL
half-life [17]: 3.4 h
AUC(0-inf) [18]: 1.66 µg·h/mL

O=C(Nc1nccs1)[C@H](CC1CCOCC1)c1ccc(S(=O)(=O)C2CC2)cc1
solubility [1]: 0.147 mg/mL (≈ 350 µM)
half-life [3]: 2.4 h
Activity (Rattus norvegicus [4]): Toxic
concentration at 0.5 h [5]: 1.85 µg/mL
EC50 (Hexokinase-4): 0.57 µM
